Measurements: patent US20090074815A1, “Immunomodulator Compounds as Vaccine Enhancers” (SCICLONE PHARMACEUTICALS, INC., priority 2005, published 2009)
Like-named read-outs stand apart in the source and are kept apart here.

Legend:
[1] = tested on: thymic cells; experiment: ConA-induced proliferation of thymic cells (3H-thymidine uptake); assay type: in vivo, mice
Source text: Materials and Methods: Eighteen (18) to twenty (20) gram (g) male mice, purchased from the Rappolovo Animal Facility, Russia, were used in the studies described below. C57BL/6 (B6) mice were used to evaluate the effect of SCV-07 in non-immunized mice. CBAxC57BL/6 (F1) mice were used for studies of the effects of SCV-07 on the antigen-specific immune response. Mice were kept under the standard animal facility conditions and were provided with a standard diet and water ad libitum. Each treatment group included 4-5 mice. […] A suspension containing filling agents alone, which corresponded to the maximum amount of filling agents in the doses of SCV-07 administered to experimental animals, was used a control. […] Assessment of Mitogen- and Antigen-Induced Proliferation: […] Antigen-specific proliferation was studied by stimulating thymocytes and splenoctyes in vitro with different concentrations of OvA for 96 h. Twenty (20) to twenty-four (24) hours prior to completion of incubation, 3H-labeled thymidine (5 μCi/ml) was added to the cells. The cells were then transferred to fiberglass filters with a Titertek® semi-automatic cell harvester. Thymidine uptake was measured using a RackBeta 1217 (Wallac) liquid scintillation β-counter. For quantitative analysis of proliferation, the stimulation index (SI) was calculated as a ratio of the intensity of label inclusion in the stimulated cells to that in non-stimulated cells.

[2] = tested on: IL-10 production by OvA-stimulated splenocytes; experiment: OvA-stimulated production of IL-10 by splenocytes of OvA-immunized mice; conditions: Mus musculus, Splenocyte, po; for activity at 0.0001 mg/kg: 0.1 μg/kg per os; for activity at 0.001 mg/kg: 1.0 μg/kg per os; for activity at 0.01 mg/kg: 10.0 μg/kg per os
Procedure: The OvA was administered subcutaneously to the crest in a volume of 200 μl. Mice were immunized on day 1 with OvA in complete Freund's adjuvant (CFA; Sigma) and on day 15 with the antigen in incomplete Freund's adjuvant (IFA; Sigma). The immune response was analyzed on day 29. Mice were also immunized with 10 μg/mouse of OvA using Alum as an adjuvant.
Thymuses and spleens from mice of each treatment group were pooled, and then minced with scissors. The minced tissues were suspended in sterile PBS to form cell suspensions, filtered through a double gauze layer and centrifuged. Cells were washed twice with PBS, re-suspended in RPMI-1640 (Sigma) with 2.0 mM of L-glutamine, 50 μM of mercaptoethanol, and 10 μg/ml of gentamycin (complete medium); and cell counts were made. (The splenocyte suspension was washed with a 0.86% solution of NH4Cl to pre-lyse erthrocytes.)
Assessment of Mitogen- and Antigen-Induced Production of Cytokines: Thymic cells (1×10^6/well) in complete medium with 2% FCS were stimulated with ConA (0, 1, and 2 μg/ml). Splenocytes (1×10^6/well) in complete medium with 5% FCS were stimulated with ConA (0, 1, and 5 μg/ml) and with OvA (0-100 μg/ml). […] Supernatants from OvA-stimulated cultures were collected after 72 hours. Supernatants from both cultures were frozen, and kept at 20° C. Concentrations of IL-2, IL-4, IL-10, IL-12R40 and IFNγ in the supernatants were determined by solid-phase EIA with EIA Expansion Kits, available from BD Biosciences (formerly Pharmingen), in accordance with the manufacturer's instructions.

[3] = thymic cells, ConA 1 μg/ml, 0.01 μg/kg Tablet, per os
[4] = thymic cells, ConA 1 μg/ml, 0.01 μg/kg per os
[5] = thymic cells, ConA 1 μg/ml, 0.1 μg/kg Tablet, per os
[6] = thymic cells, ConA 1 μg/ml, 0.1 μg/kg i/p, Table 4
[7] = thymic cells, ConA 1 μg/ml, 0.1 μg/kg i/p, Table 5
[8] = thymic cells, ConA 1 μg/ml, 0.1 μg/kg per os
[9] = thymic cells, ConA 1 μg/ml, 1.0 μg/kg Tablet, per os
[10] = thymic cells, ConA 1 μg/ml, 1.0 μg/kg i/p, Table 4
[11] = thymic cells, ConA 1 μg/ml, 1.0 μg/kg i/p, Table 5
[12] = thymic cells, ConA 1 μg/ml, 1.0 μg/kg per os
[13] = thymic cells, ConA 1 μg/ml, 10.0 μg/kg Tablet, per os
[14] = thymic cells, ConA 1 μg/ml, 10.0 μg/kg per os
[15] = thymic cells, ConA 1 μg/ml, 100.0 μg/kg per os
[16] = read-out: Production of IL-10 by splenocytes, % (% of control), OvA/Alum, OvA 0 μg/ml
[17] = read-out: Production of IL-10 by splenocytes, % (% of control), OvA/Alum, OvA 10 μg/ml
[18] = read-out: Production of IL-10 by splenocytes, % (% of control), OvA/Alum, OvA 25 μg/ml
[19] = read-out: Production of IL-10 by splenocytes, % (% of control), OvA/Alum, OvA 50 μg/ml
[20] = read-out: Production of IL-10 by splenocytes, % (% of control), OvA/Alum, OvA 100 μg/ml
[21] = read-out: Production of IL-10 by splenocytes, % (% of control), OvA/FA, OvA 0 μg/ml
[22] = read-out: Production of IL-10 by splenocytes, % (% of control), OvA/FA, OvA 10 μg/ml
[23] = read-out: Production of IL-10 by splenocytes, % (% of control), OvA/FA, OvA 25 μg/ml
[24] = read-out: Production of IL-10 by splenocytes, % (% of control), OvA/FA, OvA 50 μg/ml
[25] = read-out: Production of IL-10 by splenocytes, % (% of control), OvA/FA, OvA 100 μg/ml

For `N[C@H](CCC(=O)N[C@@H](Cc1c[nH]c2ccccc12)C(=O)O)C(=O)O` [SCV-07, γ-D-glutamyl-L-tryptophan], the “minimal dose of SCV-07 given as a crushed tablet which caused significant enhancement of proliferation” value ([1]; crushed tablet per os, ConA 1 μg/ml) was 0.1 µg/kg, the “minimal SCV-07 dose which caused significant increase in proliferation of thymic cells” value ([1]; oral administration, the same as for i/p) was 0.1 µg/kg and the “Spontaneous proliferation (cpm) M ± SD” value ([1]; thymic cells, 0.01 μg/kg Tablet, per os) was 308 ± 104 cpm. For the same molecule, the “Spontaneous proliferation (cpm) M ± SD” value ([1]; thymic cells, 0.01 μg/kg per os) was 238 ± 64 cpm, the “Spontaneous proliferation (cpm) M ± SD” value ([1]; thymic cells, 0.1 μg/kg Tablet, per os) was 395 ± 136 cpm and the “Spontaneous proliferation (cpm) M ± SD” value ([1]; thymic cells, 0.1 μg/kg i/p, Table 4) was 268 ± 114 cpm. For the same molecule, the “Spontaneous proliferation (cpm) M ± SD” value ([1]; thymic cells, 0.1 μg/kg i/p, Table 5) was 251 ± 36 cpm, the “Spontaneous proliferation (cpm) M ± SD” value ([1]; thymic cells, 0.1 μg/kg per os) was 250 ± 75 cpm and the “Spontaneous proliferation (cpm) M ± SD” value ([1]; thymic cells, 1.0 μg/kg Tablet, per os) was 355 ± 62 cpm. For the same molecule, the “Spontaneous proliferation (cpm) M ± SD” value ([1]; thymic cells, 1.0 μg/kg i/p, Table 4) was 342 ± 83 cpm, the “Spontaneous proliferation (cpm) M ± SD” value ([1]; thymic cells, 1.0 μg/kg i/p, Table 5) was 555 ± 20 cpm and the “Spontaneous proliferation (cpm) M ± SD” value ([1]; thymic cells, 1.0 μg/kg per os) was 198 ± 44 cpm. The “Spontaneous proliferation (cpm) M ± SD” value ([1]; thymic cells, 10.0 μg/kg Tablet, per os) was 317 ± 77 cpm, the “Spontaneous proliferation (cpm) M ± SD” value ([1]; thymic cells, 10.0 μg/kg per os) was 246 ± 51 cpm and the “Spontaneous proliferation (cpm) M ± SD” value ([1]; thymic cells, 100.0 μg/kg per os) was 272 ± 98 cpm. The “Induced proliferation (cpm) M ± SD” value [1, 3] was 3144 ± 582 cpm, the Stimulation index [1, 3] was 10.2 and the “Induced proliferation (cpm) M ± SD” value [1, 4] was 6698 ± 1465 cpm. For the same molecule, the Stimulation index [1, 4] was 28.1, the “Induced proliferation (cpm) M ± SD” value [1, 5] was 9900 ± 2021 cpm and the Stimulation index [1, 5] was 25.1. The “Induced proliferation (cpm) M ± SD” value [1, 6] was 14261 ± 1400 cpm, the Stimulation index [1, 6] was 53.3 and the “Induced proliferation (cpm) M ± SD” value [1, 7] was 9897 ± 678 cpm. For the same molecule, the Stimulation index [1, 7] was 39.4, the “Induced proliferation (cpm) M ± SD” value [1, 8] was 9754 ± 1633 cpm and the Stimulation index [1, 8] was 39.1. The “Induced proliferation (cpm) M ± SD” value [1, 9] was 10248 ± 1913 cpm, the Stimulation index [1, 9] was 28.9 and the “Induced proliferation (cpm) M ± SD” value [1, 10] was 20995 ± 6425 cpm. For the same molecule, the Stimulation index [1, 10] was 61.4, the “Induced proliferation (cpm) M ± SD” value [1, 11] was 33418 ± 3490 cpm and the Stimulation index [1, 11] was 49.7. For the same molecule, the “Induced proliferation (cpm) M ± SD” value [1, 12] was 20658 ± 5873 cpm, the Stimulation index [1, 12] was 104.6 and the “Induced proliferation (cpm) M ± SD” value [1, 13] was 7675 ± 1456 cpm. The Stimulation index [1, 13] was 24.2, the “Induced proliferation (cpm) M ± SD” value [1, 14] was 13905 ± 2443 cpm and the Stimulation index [1, 14] was 56.6. The “Induced proliferation (cpm) M ± SD” value [1, 15] was 27589 ± 1331 cpm, the Stimulation index [1, 15] was 101.4 and the “proliferation of cells stimulated by the optimal dose of ConA” value ([1]; thymic cells, per os or i/p, data not shown) was “did not significantly change”. It also gave an activity at 0.0001 mg/kg [2, 16] of 100%, an activity at 0.0001 mg/kg [2, 17] of 118% and an activity at 0.0001 mg/kg [2, 18] of 105%. For the same molecule, the activity at 0.0001 mg/kg [2, 19] was 132%, the activity at 0.0001 mg/kg [2, 20] was 129% and the activity at 0.001 mg/kg [2, 16] was 100%. For the same molecule, the activity at 0.001 mg/kg [2, 17] was 128%, the activity at 0.001 mg/kg [2, 18] was 112% and the activity at 0.001 mg/kg [2, 19] was 110%. The activity at 0.001 mg/kg [2, 20] was 109%, the activity at 0.01 mg/kg [2, 16] was 100% and the activity at 0.01 mg/kg [2, 17] was 138%. It also gave an activity at 0.01 mg/kg [2, 18] of 156%, an activity at 0.01 mg/kg [2, 19] of 197% and an activity at 0.01 mg/kg [2, 20] of 218%. For the same molecule, the activity at 0.0001 mg/kg [2, 21] was 100%, the activity at 0.0001 mg/kg [2, 22] was 136% and the activity at 0.0001 mg/kg [2, 23] was 210%. It also gave an activity at 0.0001 mg/kg [2, 24] of 248%, an activity at 0.0001 mg/kg [2, 25] of 270% and an activity at 0.001 mg/kg [2, 21] of 100%. The activity at 0.001 mg/kg [2, 22] was 234%, the activity at 0.001 mg/kg [2, 23] was 241% and the activity at 0.001 mg/kg [2, 24] was 275%. The activity at 0.001 mg/kg [2, 25] was 317%, the activity at 0.01 mg/kg [2, 21] was 100% and the activity at 0.01 mg/kg [2, 22] was 133%.
